Source: US20080009418A1, “Selective Inhibitors” (Alchemia LTD., priority 2004, published 2008)

How the values were obtained:
Conditions in all cases: compound at 10 μM
[1] = biological target: T1, Human Melanocortin (MC3) (Homo sapiens, UniProt P41968); experiment: Radioligand binding, human melanocortin MC3 membranes, FlashPlate, [125I]-NDP-αMSH
T1 construct: purchased Perkin Elmer Biosignal
Procedure, shortened: (§1)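 Cloned human receptor membranes were coated onto FlashPlate wells and incubated with radioligand and compound (added from a 0.5 mM DMSO daughter plate) for 1 hour at room temperature in the dark. Scintillation counting gave percent inhibition, with DMSO defining total and reference ligand defining non-specific binding.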

[2] = biological target: T2, Mouse urotensin (mUR2) (Mus musculus, UniProt Q8VIH9); experiment: Radioligand binding, mouse urotensin mUR2 membranes, FlashPlate, [125I]-Urotensin II
T2 construct: purchased Perkin Elmer Biosignal
T2 sequence (Q8VIH9 1-385): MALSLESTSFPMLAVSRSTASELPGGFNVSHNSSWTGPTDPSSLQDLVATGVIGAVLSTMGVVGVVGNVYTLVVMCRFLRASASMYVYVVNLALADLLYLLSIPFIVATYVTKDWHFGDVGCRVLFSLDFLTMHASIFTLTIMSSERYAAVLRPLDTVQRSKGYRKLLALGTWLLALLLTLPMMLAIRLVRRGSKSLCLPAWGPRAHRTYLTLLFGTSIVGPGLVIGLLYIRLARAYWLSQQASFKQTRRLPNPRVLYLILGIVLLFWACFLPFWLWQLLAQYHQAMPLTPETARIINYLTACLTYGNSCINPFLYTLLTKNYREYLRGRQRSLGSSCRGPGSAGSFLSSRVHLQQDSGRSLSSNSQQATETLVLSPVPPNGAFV
Procedure, shortened: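 Cloned mouse urotensin (mUR2) receptor membranes from Perkin Elmer Biosignal were immobilized in FlashPlate microplates using a proprietary coating. Each well got 19.5 μl buffer, then 0.5 μl of DMSO, reference ligand, or compound. Adding 5 μl of [125I]-Urotensin II, diluted to 5× final concentration in binding buffer, started binding. Plates were sealed with TopSeal-A and incubated 1 hour at room temperature in the dark. Wells were counted for 30 seconds each on a TopCount after a 60-second delay, and percentage inhibition was calculated.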

[3] = biological target: T3, Human melanin-concentrating hormone (MCH1) (Homo sapiens, UniProt Q99705); experiment: Radioligand binding, human melanin-concentrating hormone MCH1 membranes, FlashPlate, [125I]-S36057
T3 construct: purchased Perkin Elmer Biosignal
Procedure, shortened: as §1

[4] = biological target: T4, Human neuropeptide Y (NPY-Y1) (Homo sapiens, UniProt P25929); experiment: Radioligand binding, human neuropeptide Y NPY-Y1 membranes, FlashPlate, [125I]-PYY
T4 construct: purchased Perkin Elmer Biosignal
T4 sequence (P25929 1-384): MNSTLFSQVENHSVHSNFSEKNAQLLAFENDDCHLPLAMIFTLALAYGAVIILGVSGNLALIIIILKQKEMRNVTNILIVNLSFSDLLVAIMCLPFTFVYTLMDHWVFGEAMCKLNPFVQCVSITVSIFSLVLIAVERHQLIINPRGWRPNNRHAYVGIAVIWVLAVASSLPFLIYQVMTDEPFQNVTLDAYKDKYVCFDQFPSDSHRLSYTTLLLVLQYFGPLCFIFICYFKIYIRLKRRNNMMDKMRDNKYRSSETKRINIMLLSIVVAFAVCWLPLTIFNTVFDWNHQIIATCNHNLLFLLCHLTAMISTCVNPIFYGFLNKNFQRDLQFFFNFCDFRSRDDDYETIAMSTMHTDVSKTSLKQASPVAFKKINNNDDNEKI
Procedure, shortened: as §1

[5] = biological target: T5, Human μ-opioid (MOP) (Homo sapiens, UniProt P35372); experiment: Radioligand binding, human μ-opioid (MOP) membranes, FlashPlate, [3H]-Naloxone
T5 construct: purchased Perkin Elmer Biosignal
Procedure, shortened: as §1

[6] = biological target: T6, Human melanocortin (MC5) (Homo sapiens, UniProt P33032); experiment: Radioligand binding, human melanocortin MC5 membranes, FlashPlate, [125I]-NDP-αMSH
T6 construct: purchased Perkin Elmer Biosignal
Procedure, shortened: as §1

[7] = biological target: T7, Human Melanocortin (MC4) (Homo sapiens, UniProt P32245); experiment: Radioligand binding, human melanocortin MC4 membranes, FlashPlate, [125I]-NDP-αMSH
T7 construct: purchased Perkin Elmer Biosignal
Procedure, shortened: as §1

[8] = biological target: T8, Human opioid (ORL1) (Homo sapiens, UniProt P41146); experiment: Radioligand binding, human opioid ORL1 membranes, FlashPlate, [125I]-Nociceptin
T8 construct: purchased Perkin Elmer Biosignal
Procedure, shortened: as §1

[9] = biological target: T9, Human κ-Opioid (KOP) (Homo sapiens, UniProt P41145); experiment: Radioligand binding, human κ-opioid (KOP) membranes, filtration, [3H]-Diprenorphine
T9 construct: purchased Perkin Elmer Biosignal
Procedure, shortened: (§2)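 Membranes from cloned human receptors were incubated with compound and radioligand for 1 hour at room temperature. Bound ligand was collected on 0.3% PEI-soaked filters, washed with cold 50 mM Tris-HCl pH 7.4, and counted by scintillation. Percent inhibition was computed against DMSO totals and reference-ligand nonspecific wells.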

[10] = biological target: T10, Human neurokinin (NK1) (Homo sapiens, UniProt P25103); experiment: Radioligand binding, human neurokinin NK1 membranes, filtration, [125I]-Substance P
T10 construct: purchased Perkin Elmer Biosignal
Procedure, shortened: as §2

[11] = biological target: T11, Human δ-opioid (DOP) (Homo sapiens, UniProt P41143); experiment: Radioligand binding, human δ-opioid (DOP) membranes, FlashPlate, [3H]-Bremazocine
T11 construct: purchased Perkin Elmer Biosignal
Procedure, shortened: as §1

T6 sequence (P33032 whole entry): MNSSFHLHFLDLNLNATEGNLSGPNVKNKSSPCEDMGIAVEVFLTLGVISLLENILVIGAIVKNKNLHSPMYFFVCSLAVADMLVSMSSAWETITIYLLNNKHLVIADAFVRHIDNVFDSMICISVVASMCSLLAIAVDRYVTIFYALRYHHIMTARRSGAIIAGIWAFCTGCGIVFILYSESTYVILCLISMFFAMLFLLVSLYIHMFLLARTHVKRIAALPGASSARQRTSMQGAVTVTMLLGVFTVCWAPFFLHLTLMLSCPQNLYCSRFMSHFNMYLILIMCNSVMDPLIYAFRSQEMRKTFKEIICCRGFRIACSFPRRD
T5 sequence (P35372 whole entry): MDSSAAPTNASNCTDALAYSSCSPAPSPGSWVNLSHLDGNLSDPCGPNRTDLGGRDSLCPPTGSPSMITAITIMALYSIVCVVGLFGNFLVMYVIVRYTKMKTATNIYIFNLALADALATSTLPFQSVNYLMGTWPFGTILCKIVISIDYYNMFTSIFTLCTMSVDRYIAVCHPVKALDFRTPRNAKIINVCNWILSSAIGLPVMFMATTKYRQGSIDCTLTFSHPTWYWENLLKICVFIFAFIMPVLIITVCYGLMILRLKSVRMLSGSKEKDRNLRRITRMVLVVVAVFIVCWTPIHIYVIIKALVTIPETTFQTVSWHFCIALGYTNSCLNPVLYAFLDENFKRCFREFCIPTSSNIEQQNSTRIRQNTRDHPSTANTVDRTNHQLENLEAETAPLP
T11 sequence (P41143 whole entry): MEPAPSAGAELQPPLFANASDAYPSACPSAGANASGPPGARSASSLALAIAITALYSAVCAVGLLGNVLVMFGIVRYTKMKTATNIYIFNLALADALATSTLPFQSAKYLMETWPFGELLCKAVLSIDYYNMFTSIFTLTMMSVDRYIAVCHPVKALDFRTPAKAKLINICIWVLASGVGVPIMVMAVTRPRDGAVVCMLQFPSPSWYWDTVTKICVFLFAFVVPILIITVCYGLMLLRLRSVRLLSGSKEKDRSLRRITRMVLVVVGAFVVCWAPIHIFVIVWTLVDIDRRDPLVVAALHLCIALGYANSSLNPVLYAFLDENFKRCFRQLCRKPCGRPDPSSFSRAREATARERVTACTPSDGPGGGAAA
T1 sequence (P41968 whole entry): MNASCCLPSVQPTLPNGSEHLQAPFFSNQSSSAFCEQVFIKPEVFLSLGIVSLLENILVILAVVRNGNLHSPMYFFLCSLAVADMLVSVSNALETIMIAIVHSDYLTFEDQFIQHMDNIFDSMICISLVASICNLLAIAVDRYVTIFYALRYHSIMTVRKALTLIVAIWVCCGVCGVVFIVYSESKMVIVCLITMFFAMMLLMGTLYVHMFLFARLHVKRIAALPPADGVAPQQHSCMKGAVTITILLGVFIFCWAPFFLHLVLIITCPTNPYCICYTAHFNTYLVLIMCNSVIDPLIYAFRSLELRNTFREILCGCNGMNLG
T3 sequence (Q99705 whole entry): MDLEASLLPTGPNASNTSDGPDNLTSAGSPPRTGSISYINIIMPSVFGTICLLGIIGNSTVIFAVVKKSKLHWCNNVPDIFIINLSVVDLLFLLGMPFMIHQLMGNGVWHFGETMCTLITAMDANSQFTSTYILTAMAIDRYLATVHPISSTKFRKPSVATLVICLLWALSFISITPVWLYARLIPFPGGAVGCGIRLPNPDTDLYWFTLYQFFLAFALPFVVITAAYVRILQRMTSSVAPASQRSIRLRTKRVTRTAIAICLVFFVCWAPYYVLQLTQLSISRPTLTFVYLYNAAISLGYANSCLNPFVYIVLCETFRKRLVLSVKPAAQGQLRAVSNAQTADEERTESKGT
T7 sequence (P32245 whole entry): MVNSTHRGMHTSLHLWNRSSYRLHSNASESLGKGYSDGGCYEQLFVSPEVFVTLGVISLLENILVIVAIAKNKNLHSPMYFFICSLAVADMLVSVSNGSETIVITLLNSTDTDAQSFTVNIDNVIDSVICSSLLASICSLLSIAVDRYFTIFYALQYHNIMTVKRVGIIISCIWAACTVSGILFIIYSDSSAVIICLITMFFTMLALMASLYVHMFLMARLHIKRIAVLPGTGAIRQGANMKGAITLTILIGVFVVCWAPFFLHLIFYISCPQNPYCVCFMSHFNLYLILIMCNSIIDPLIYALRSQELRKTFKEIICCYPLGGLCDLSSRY
T8 sequence (P41146 whole entry): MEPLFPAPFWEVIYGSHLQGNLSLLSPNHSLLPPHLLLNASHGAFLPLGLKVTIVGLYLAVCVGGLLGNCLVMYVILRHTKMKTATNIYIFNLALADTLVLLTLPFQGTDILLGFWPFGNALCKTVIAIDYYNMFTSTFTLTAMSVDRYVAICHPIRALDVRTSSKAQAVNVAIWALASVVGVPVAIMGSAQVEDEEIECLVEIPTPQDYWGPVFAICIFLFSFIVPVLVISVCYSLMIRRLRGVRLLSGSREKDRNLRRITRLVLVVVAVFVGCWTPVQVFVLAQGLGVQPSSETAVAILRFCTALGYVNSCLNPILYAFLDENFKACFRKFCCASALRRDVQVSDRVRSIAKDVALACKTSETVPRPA
T10 sequence (P25103 whole entry): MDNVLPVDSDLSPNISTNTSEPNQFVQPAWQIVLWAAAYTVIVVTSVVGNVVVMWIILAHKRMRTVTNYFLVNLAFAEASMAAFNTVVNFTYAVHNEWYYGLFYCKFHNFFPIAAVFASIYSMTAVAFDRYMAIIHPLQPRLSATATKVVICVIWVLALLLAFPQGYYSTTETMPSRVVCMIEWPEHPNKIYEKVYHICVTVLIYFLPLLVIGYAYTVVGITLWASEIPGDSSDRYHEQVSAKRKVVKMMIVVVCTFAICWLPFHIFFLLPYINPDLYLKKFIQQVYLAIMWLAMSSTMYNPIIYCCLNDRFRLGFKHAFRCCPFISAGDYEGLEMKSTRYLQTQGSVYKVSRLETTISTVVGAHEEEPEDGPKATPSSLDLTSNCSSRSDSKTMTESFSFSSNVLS
T9 sequence (P41145 whole entry): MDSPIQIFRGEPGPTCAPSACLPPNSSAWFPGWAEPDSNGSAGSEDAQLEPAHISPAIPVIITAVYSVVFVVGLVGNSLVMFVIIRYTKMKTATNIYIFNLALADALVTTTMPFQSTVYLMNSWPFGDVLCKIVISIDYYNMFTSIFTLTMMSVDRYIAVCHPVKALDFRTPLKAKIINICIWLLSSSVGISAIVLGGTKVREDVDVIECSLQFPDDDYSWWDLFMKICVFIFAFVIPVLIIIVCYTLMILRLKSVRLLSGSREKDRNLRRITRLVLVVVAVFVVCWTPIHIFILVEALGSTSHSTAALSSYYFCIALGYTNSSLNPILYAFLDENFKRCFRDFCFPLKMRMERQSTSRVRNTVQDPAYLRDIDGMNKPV

## CO[C@H]1[C@H](O)[C@@H](COCc2ccc3ccccc3c2)OC(OCc2ccc(Cl)cc2)[C@@H]1NC(=O)C1CCN(C(=N)N)CC1 (stereo partly shown) [compound 354]
[1]; [125I]-NDP-αMSH
  A3: inhibition of radioligand binding, human melanocortin (MC3): − (“−” indicates less than 50% inhibition at 10 μM)
[2]; [125I]-Urotensin II
  A11: inhibition of radioligand binding, mouse urotensin (mUR2): − (“−” indicates less than 50% inhibition at 10 μM)
[3]; [125I]-S36057
  A6: inhibition of radioligand binding, human melanin-concentrating hormone (MCH1): − (“−” indicates less than 50% inhibition at 10 μM)
[4]; [125I]-PYY
  A9: inhibition of radioligand binding, human neuropeptide Y (NPY-Y1): − (“−” indicates less than 50% inhibition at 10 μM)
[5]; [3H]-Naloxone
  A7: inhibition of radioligand binding, human μ-opioid (MOP): − (“−” indicates less than 50% inhibition at 10 μM)
[6]; [125I]-NDP-αMSH
  A5: inhibition of radioligand binding, human melanocortin (MC5): + (“+” indicates greater than 50% inhibition at 10 μM)
[7]; [125I]-NDP-αMSH
  A4: inhibition of radioligand binding, human melanocortin (MC4): + (“+” indicates greater than 50% inhibition at 10 μM)
[8]; [125I]-Nociceptin
  A10: inhibition of radioligand binding, human opioid (ORL1): − (“−” indicates less than 50% inhibition at 10 μM)
[9]; [3H]-Diprenorphine
  A2: inhibition of radioligand binding, human κ-opioid (KOP): − (“−” indicates less than 50% inhibition at 10 μM)
[10]; [125I]-Substance P
  A8: inhibition of radioligand binding, human neurokinin (NK1): + (“+” indicates greater than 50% inhibition at 10 μM)
[11]; [3H]-Bremazocine
  A1: inhibition of radioligand binding, human δ-opioid (DOP): − (“−” indicates less than 50% inhibition at 10 μM)

## COC[C@H]1OC(OCCc2ccccc2)[C@H](NC(=O)CCCNC(=N)N)[C@@H](OCc2ccc(Cl)cc2)[C@@H]1O (stereo partly shown) [compound 50]
[1]; human melanocortin MC3 membranes
  A3 radioligand binding inhibition: − (“−” indicates less than 50% inhibition at 10 μM)
[2]; mouse urotensin mUR2 membranes
  A11 radioligand binding inhibition: − (“−” indicates less than 50% inhibition at 10 μM)
[3]; human MCH1 membranes
  A6 radioligand binding inhibition: + (“+” indicates greater than 50% inhibition at 10 μM)
[4]; human NPY-Y1 membranes
  A9 radioligand binding inhibition: − (“−” indicates less than 50% inhibition at 10 μM)
[5]; human μ-opioid (MOP) membranes
  A7 radioligand binding inhibition: − (“−” indicates less than 50% inhibition at 10 μM)
[6]; human melanocortin MC5 membranes
  A5 radioligand binding inhibition: − (“−” indicates less than 50% inhibition at 10 μM)
[7]; human melanocortin MC4 membranes
  A4 radioligand binding inhibition: − (“−” indicates less than 50% inhibition at 10 μM)
[8]; human ORL1 membranes
  A10 radioligand binding inhibition: − (“−” indicates less than 50% inhibition at 10 μM)
[9]; human κ-opioid (KOP) membranes
  A2 radioligand binding inhibition: − (“−” indicates less than 50% inhibition at 10 μM)
[10]; human neurokinin NK1 membranes
  A8 radioligand binding inhibition: + (“+” indicates greater than 50% inhibition at 10 μM)
[11]; human δ-opioid (DOP) membranes
  A1 radioligand binding inhibition: − (“−” indicates less than 50% inhibition at 10 μM)

## CO[C@H]1[C@H](O)[C@@H](COCc2ccc(-c3ccccc3)cc2)OC(OCc2ccc(Cl)cc2)[C@@H]1NC(=O)CCCN (stereo partly shown) [compound 95]
[1]; [125I]-NDP-αMSH
  A3 radioligand binding, percentage inhibition: − (“−” indicates less than 50% inhibition at 10 μM)
[2]; [125I]-Urotensin II
  A11 radioligand binding, percentage inhibition: − (“−” indicates less than 50% inhibition at 10 μM)
[3]; [125I]-S36057
  A6 radioligand binding, percentage inhibition: + (“+” indicates greater than 50% inhibition at 10 μM)
[4]; [125I]-PYY
  A9 radioligand binding, percentage inhibition: − (“−” indicates less than 50% inhibition at 10 μM)
[5]; [3H]-Naloxone
  A7 radioligand binding, percentage inhibition: − (“−” indicates less than 50% inhibition at 10 μM)
[6]; [125I]-NDP-αMSH
  A5 radioligand binding, percentage inhibition: + (“+” indicates greater than 50% inhibition at 10 μM)
[7]; [125I]-NDP-αMSH
  A4 radioligand binding, percentage inhibition: + (“+” indicates greater than 50% inhibition at 10 μM)
[8]; [125I]-Nociceptin
  A10 radioligand binding, percentage inhibition: + (“+” indicates greater than 50% inhibition at 10 μM)
[9]; [3H]-Diprenorphine
  A2 radioligand binding, percentage inhibition: − (“−” indicates less than 50% inhibition at 10 μM)
[10]; [125I]-Substance P
  A8 radioligand binding, percentage inhibition: + (“+” indicates greater than 50% inhibition at 10 μM)
[11]; [3H]-Bremazocine
  A1 radioligand binding, percentage inhibition: − (“−” indicates less than 50% inhibition at 10 μM)

## N=C(N)NCCC(=O)N[C@H]1C(OCc2ccc(Cl)cc2)O[C@H](COCc2ccc(Cl)cc2)[C@@H](O)[C@@H]1OCc1ccc(Cl)cc1 (stereo partly shown) [compound 527]
[1]; [125I]-NDP-αMSH, 10 µM
  A3: inhibition of radioligand binding, human melanocortin (MC3): + (“+” indicates greater than 50% inhibition at 10 μM)
[2]; [125I]-Urotensin II
  A11: inhibition of radioligand binding, mouse urotensin (mUR2): − (“−” indicates less than 50% inhibition at 10 μM)
[3]; [125I]-S36057
  A6: inhibition of radioligand binding, human melanin-concentrating hormone (MCH1): + (“+” indicates greater than 50% inhibition at 10 μM)
[4]; [125I]-PYY
  A9: inhibition of radioligand binding, human neuropeptide Y (NPY-Y1): − (“−” indicates less than 50% inhibition at 10 μM)
[5]; [3H]-Naloxone
  A7: inhibition of radioligand binding, human μ-opioid (MOP): − (“−” indicates less than 50% inhibition at 10 μM)
[6]; [125I]-NDP-αMSH
  A5: inhibition of radioligand binding, human melanocortin (MC5): + (“+” indicates greater than 50% inhibition at 10 μM)
[7]; [125I]-NDP-αMSH, 10 µM
  A4: inhibition of radioligand binding, human melanocortin (MC4): + (“+” indicates greater than 50% inhibition at 10 μM)
[8]; [125I]-Nociceptin
  A10: inhibition of radioligand binding, human opioid (ORL1): − (“−” indicates less than 50% inhibition at 10 μM)
[9]; [3H]-Diprenorphine, 10 µM
  A2: inhibition of radioligand binding, human κ-opioid (KOP): + (“+” indicates greater than 50% inhibition at 10 μM)
[10]; [125I]-Substance P
  A8: inhibition of radioligand binding, human neurokinin (NK1): + (“+” indicates greater than 50% inhibition at 10 μM)
[11]; [3H]-Bremazocine
  A1: inhibition of radioligand binding, human δ-opioid (DOP): − (“−” indicates less than 50% inhibition at 10 μM)

## NCCCC(=O)NC1C(OCc2ccc3ccccc3c2)OC(COCc2ccccc2)C(O)C1OCc1ccccc1 (stereo not shown) [compound 397]
[1]; [125I]-NDP-αMSH, human MC3 membranes
  A3: inhibition of radioligand binding: − (“−” indicates less than 50% inhibition at 10 μM)
[2]; [125I]-Urotensin II, mouse mUR2 membranes
  A11: inhibition of radioligand binding: − (“−” indicates less than 50% inhibition at 10 μM)
[3]; [125I]-S36057, human MCH1 membranes
  A6: inhibition of radioligand binding: − (“−” indicates less than 50% inhibition at 10 μM)
[4]; [125I]-PYY, human NPY-Y1 membranes
  A9: inhibition of radioligand binding: − (“−” indicates less than 50% inhibition at 10 μM)
[5]; [3H]-Naloxone, human MOP membranes, 10 µM
  A7: inhibition of radioligand binding: − (“−” indicates less than 50% inhibition at 10 μM)
[6]; [125I]-NDP-αMSH, human MC5 membranes
  A5: inhibition of radioligand binding: − (“−” indicates less than 50% inhibition at 10 μM)
[7]; [125I]-NDP-αMSH, human MC4 membranes, 10 µM
  A4: inhibition of radioligand binding: + (“+” indicates greater than 50% inhibition at 10 μM)
[8]; [125I]-Nociceptin, human ORL1 membranes, 10 µM
  A10: inhibition of radioligand binding: + (“+” indicates greater than 50% inhibition at 10 μM)
[9]; [3H]-Diprenorphine, human KOP membranes
  A2: inhibition of radioligand binding: − (“−” indicates less than 50% inhibition at 10 μM)
[10]; [125I]-Substance P, human NK1 membranes
  A8: inhibition of radioligand binding: + (“+” indicates greater than 50% inhibition at 10 μM)
[11]; [3H]-Bremazocine, human DOP membranes
  A1: inhibition of radioligand binding: − (“−” indicates less than 50% inhibition at 10 μM)
